According to patent US8192962B2, “Processes for detecting toxic substances” (Daikin Industries, Ltd., priority 2001, dated 2012):

Tested on: Energy system protein genes
Experiment: DNA chip mRNA expression in yeast, energy system protein genes (Table 4)
Format: cell-based, Saccharomyces cerevisiae S288C
Experimental: Yeast (Saccharomyces cerevisiae S288C (α SUC2mal mel gap2 CUP1)) were incubated at 25° C. on YPD medium (yeast extract 1%, polypepton 2%, glucose 2%). One of toxic chemical substances was added to the cells at logarithmic growth phase, and the cells were further incubated for two hours. Cells were cultured without any chemical substance in the same condition, and were used as control. Concentrations of the chemical substances were defined to inhibit the growth of the yeast but not lead to death.
After completion of the incubation, the culture was centrifuged to collect the cells. To the cells, sodium acetate buffer (50 mM sodium acetate, 10 mM EDTA, 1% SDS) was added, and the mixture was shaken at 65° C. for five minutes, followed by returning to room temperature, and obtaining the supernatant, of which the procedures were repeated two times. To the supernatant, ½ amount of a solution of phenol/chloroform was added, and the mixture was centrifuged to give a supernatant, which was added with an equal amount of chloroform, and the mixture was centrifuged to give a supernatant. To the supernatant, an equal amount of isopropanol containing 0.3 M sodium acetate was added, and the mixture was allowed to stand at room temperature for 30 minutes, after which the mixture was centrifuged to give a sediment of the whole RNAs. Seventy % ethanol was added to the sediment, and the mixture was again centrifuged to give a sediment, which was then dried and dissolved in water. mRNA was isolated from the whole RNAs as followings. In view of the fact that a poly A chain is attached to the 3′ terminus of mRNA, a polynucleotide having a poly T structure which was immobilized on the surface of latex beads was used to trap the mRNA, and then the mRNA was washed and eluted with spine column (Oligotex-dT30<Super>mRNA Purification Kit, Takara). Reverse transcription of the mRNA was conducted with a reverse transcriptase (Super Script II Reverse Transcriptase; catalogue No. 18064-014, GibcoBRL) using fluorescence-labeled nucleotides to give cDNAs that were introduced with Cy3-dUTP or Cy5-dUTP during the reverse transcription.
The labeled cDNAs were dissolved in TE buffer (10mM Tris-HCl/1 mM EDTA, pH8.0), and the solution was dropped on the DNA chip containing the whole genes of yeast (DNA Chip Research Inc. Japan) so that the cDNAs were hybridized on the DNA chip at 65° C. for over 12 hours. The fluoresces intensity of the DNA chip was read with a scanner, and the ratio relative to the fluorescence intensity resulting from the absence of chemical substance was estimated as the following, which is shown in Tables 1 to 9: […]

Question: `CCCCCCCCCCCCc1ccc(S(=O)(=O)[O-])cc1.[Na+]` [(17), sodium dodecylbenzosulfonate] was tested. Which “The level of expressed mRNA in the presence of chemical substance/The level of expressed mRNA in the absence of chemical substance” value (yeast gene YAL060W) did it give?
Answer: The value was 1.1.

Question: And the “The level of expressed mRNA in the presence of chemical substance/The level of expressed mRNA in the absence of chemical substance” value (yeast gene YBL058W, cells incubated two hours with the chemical substance)?
Answer: The value was 1.0.

Question: What about the “The level of expressed mRNA in the presence of chemical substance/The level of expressed mRNA in the absence of chemical substance” value (yeast gene YBL099W, cells incubated two hours with the chemical substance) of the same compound?
Answer: Its value is 0.7.

Question: And the “The level of expressed mRNA in the presence of chemical substance/The level of expressed mRNA in the absence of chemical substance” value (yeast gene YBR001C, cells incubated two hours with the chemical substance)?
Answer: Its value is 1.0.

Question: And the “The level of expressed mRNA in the presence of chemical substance/The level of expressed mRNA in the absence of chemical substance” value (yeast gene YBR185C, cells incubated two hours with the chemical substance)?
Answer: Its value is 0.8.

Question: What about the “The level of expressed mRNA in the presence of chemical substance/The level of expressed mRNA in the absence of chemical substance” value (yeast gene YBR221C, cells incubated two hours with the chemical substance) of the same compound?
Answer: Its value is 0.9.

Question: And the “The level of expressed mRNA in the presence of chemical substance/The level of expressed mRNA in the absence of chemical substance” value (yeast gene YCL040W)?
Answer: The value was 1.4.

Question: What about the “The level of expressed mRNA in the presence of chemical substance/The level of expressed mRNA in the absence of chemical substance” value (yeast gene YCR012W) of the same compound?
Answer: The value was 0.8.

Question: What about the “The level of expressed mRNA in the presence of chemical substance/The level of expressed mRNA in the absence of chemical substance” value (yeast gene YCR046C, cells incubated two hours with the chemical substance) of the same compound?
Answer: Its value is 1.3.

Question: What about the “The level of expressed mRNA in the presence of chemical substance/The level of expressed mRNA in the absence of chemical substance” value (yeast gene YCR105W, cells incubated two hours with the chemical substance) of the same compound?
Answer: The value was 1.3.

Question: And the “The level of expressed mRNA in the presence of chemical substance/The level of expressed mRNA in the absence of chemical substance” value (yeast gene YDL021W)?
Answer: The value was 1.9.

Question: And the “The level of expressed mRNA in the presence of chemical substance/The level of expressed mRNA in the absence of chemical substance” value (yeast gene YDL067C, cells incubated two hours with the chemical substance)?
Answer: The value was 1.2.

Question: And the “The level of expressed mRNA in the presence of chemical substance/The level of expressed mRNA in the absence of chemical substance” value (yeast gene YDL078C, cells incubated two hours with the chemical substance)?
Answer: Its value is 1.1.

Question: What about the “The level of expressed mRNA in the presence of chemical substance/The level of expressed mRNA in the absence of chemical substance” value (yeast gene YDL107W, cells incubated two hours with the chemical substance) of the same compound?
Answer: The value was 1.1.

Question: What about the “The level of expressed mRNA in the presence of chemical substance/The level of expressed mRNA in the absence of chemical substance” value (yeast gene YDL174C) of the same compound?
Answer: The value was 2.2.

Question: What about the “The level of expressed mRNA in the presence of chemical substance/The level of expressed mRNA in the absence of chemical substance” value (yeast gene YDL181W, cells incubated two hours with the chemical substance) of the same compound?
Answer: Its value is 1.5.

Question: And the “The level of expressed mRNA in the presence of chemical substance/The level of expressed mRNA in the absence of chemical substance” value (yeast gene YDR001C)?
Answer: The value was 1.1.

Question: And the “The level of expressed mRNA in the presence of chemical substance/The level of expressed mRNA in the absence of chemical substance” value (yeast gene YDR050C, cells incubated two hours with the chemical substance)?
Answer: Its value is 1.1.

Question: And the “The level of expressed mRNA in the presence of chemical substance/The level of expressed mRNA in the absence of chemical substance” value (yeast gene YDR079W, cells incubated two hours with the chemical substance)?
Answer: The value was 1.1.

Question: What about the “The level of expressed mRNA in the presence of chemical substance/The level of expressed mRNA in the absence of chemical substance” value (yeast gene YDR178W, cells incubated two hours with the chemical substance) of the same compound?
Answer: Its value is 1.2.

Question: What about the “The level of expressed mRNA in the presence of chemical substance/The level of expressed mRNA in the absence of chemical substance” value (yeast gene YDR231C) of the same compound?
Answer: Its value is 1.2.

Question: And the “The level of expressed mRNA in the presence of chemical substance/The level of expressed mRNA in the absence of chemical substance” value (yeast gene YDR298C, cells incubated two hours with the chemical substance)?
Answer: The value was 1.1.

Question: And the “The level of expressed mRNA in the presence of chemical substance/The level of expressed mRNA in the absence of chemical substance” value (yeast gene YDR377W, cells incubated two hours with the chemical substance)?
Answer: The value was 1.2.

Question: What about the “The level of expressed mRNA in the presence of chemical substance/The level of expressed mRNA in the absence of chemical substance” value (yeast gene YDR529C, cells incubated two hours with the chemical substance) of the same compound?
Answer: Its value is 1.0.

Question: What about the “The level of expressed mRNA in the presence of chemical substance/The level of expressed mRNA in the absence of chemical substance” value (yeast gene YEL024W, cells incubated two hours with the chemical substance) of the same compound?
Answer: Its value is 1.1.

Question: And the “The level of expressed mRNA in the presence of chemical substance/The level of expressed mRNA in the absence of chemical substance” value (yeast gene YEL039C, cells incubated two hours with the chemical substance)?
Answer: The value was 0.7.

Question: And the “The level of expressed mRNA in the presence of chemical substance/The level of expressed mRNA in the absence of chemical substance” value (yeast gene YER178W)?
Answer: Its value is 1.1.

Question: And the “The level of expressed mRNA in the presence of chemical substance/The level of expressed mRNA in the absence of chemical substance” value (yeast gene YFL057C)?
Answer: Its value is 1.6.

Question: What about the “The level of expressed mRNA in the presence of chemical substance/The level of expressed mRNA in the absence of chemical substance” value (yeast gene YFR053C) of the same compound?
Answer: The value was 1.4.

Question: What about the “The level of expressed mRNA in the presence of chemical substance/The level of expressed mRNA in the absence of chemical substance” value (yeast gene YGL018C, cells incubated two hours with the chemical substance) of the same compound?
Answer: Its value is 0.8.

Question: What about the “The level of expressed mRNA in the presence of chemical substance/The level of expressed mRNA in the absence of chemical substance” value (yeast gene YGL062W) of the same compound?
Answer: The value was 1.1.

Question: What about the “The level of expressed mRNA in the presence of chemical substance/The level of expressed mRNA in the absence of chemical substance” value (yeast gene YGL187C, cells incubated two hours with the chemical substance) of the same compound?
Answer: The value was 0.9.

Question: And the “The level of expressed mRNA in the presence of chemical substance/The level of expressed mRNA in the absence of chemical substance” value (yeast gene YGL191W, cells incubated two hours with the chemical substance)?
Answer: Its value is 1.2.

Question: And the “The level of expressed mRNA in the presence of chemical substance/The level of expressed mRNA in the absence of chemical substance” value (yeast gene YGL205W, cells incubated two hours with the chemical substance)?
Answer: Its value is 3.9.

Question: And the “The level of expressed mRNA in the presence of chemical substance/The level of expressed mRNA in the absence of chemical substance” value (yeast gene YGL256W, cells incubated two hours with the chemical substance)?
Answer: Its value is 0.7.

Question: What about the “The level of expressed mRNA in the presence of chemical substance/The level of expressed mRNA in the absence of chemical substance” value (yeast gene YGR043C) of the same compound?
Answer: Its value is 1.6.

Question: And the “The level of expressed mRNA in the presence of chemical substance/The level of expressed mRNA in the absence of chemical substance” value (yeast gene YGR062C, cells incubated two hours with the chemical substance, 25° C., YPD medium)?
Answer: The value was 0.9.

Question: And the “The level of expressed mRNA in the presence of chemical substance/The level of expressed mRNA in the absence of chemical substance” value (yeast gene YGR087C, cells incubated two hours with the chemical substance)?
Answer: Its value is 1.0.

Question: What about the “The level of expressed mRNA in the presence of chemical substance/The level of expressed mRNA in the absence of chemical substance” value (yeast gene YGR174C, cells incubated two hours with the chemical substance) of the same compound?
Answer: Its value is 1.3.

Question: And the “The level of expressed mRNA in the presence of chemical substance/The level of expressed mRNA in the absence of chemical substance” value (yeast gene YGR192C)?
Answer: The value was 1.1.

Question: What about the “The level of expressed mRNA in the presence of chemical substance/The level of expressed mRNA in the absence of chemical substance” value (yeast gene YGR244C) of the same compound?
Answer: Its value is 1.9.

Question: And the “The level of expressed mRNA in the presence of chemical substance/The level of expressed mRNA in the absence of chemical substance” value (yeast gene YGR254W)?
Answer: Its value is 1.3.

Question: What about the “The level of expressed mRNA in the presence of chemical substance/The level of expressed mRNA in the absence of chemical substance” value (yeast gene YHR179W) of the same compound?
Answer: The value was 1.9.

Question: And the “The level of expressed mRNA in the presence of chemical substance/The level of expressed mRNA in the absence of chemical substance” value (yeast gene YIL160C)?
Answer: Its value is 2.4.

Question: What about the “The level of expressed mRNA in the presence of chemical substance/The level of expressed mRNA in the absence of chemical substance” value (yeast gene YIR031C, cells incubated two hours with the chemical substance) of the same compound?
Answer: The value was 0.9.

Question: And the “The level of expressed mRNA in the presence of chemical substance/The level of expressed mRNA in the absence of chemical substance” value (yeast gene YJL052W)?
Answer: Its value is 1.2.

Question: What about the “The level of expressed mRNA in the presence of chemical substance/The level of expressed mRNA in the absence of chemical substance” value (yeast gene YJL121C, cells incubated two hours with the chemical substance) of the same compound?
Answer: Its value is 1.1.

Question: And the “The level of expressed mRNA in the presence of chemical substance/The level of expressed mRNA in the absence of chemical substance” value (yeast gene YJL166W, cells incubated two hours with the chemical substance)?
Answer: Its value is 1.7.

Question: What about the “The level of expressed mRNA in the presence of chemical substance/The level of expressed mRNA in the absence of chemical substance” value (yeast gene YJL216C, cells incubated two hours with the chemical substance) of the same compound?
Answer: Its value is 1.2.

Question: What about the “The level of expressed mRNA in the presence of chemical substance/The level of expressed mRNA in the absence of chemical substance” value (yeast gene YJR009C) of the same compound?
Answer: Its value is 1.1.
